Test results published in patent publication US20130136772A1, “REGULATION OF IMMUNE RESPONSE BY COLOCYNTHIN AND/OR ITS DERIVATIVES” (priority 2010, published 2013).
Values joined by “and” are separate entries in the source; they are usually repeats but may differ in a detail not shown here. Identical values can stand only once.

Tests used:
[1] = system: Interleukin-1beta (IL-1β); assay: Extracellular IL-1β in LPS stimulated murine neutrophils (ELISA, in vitro); type: cell-based; conditions: for Concentration of IL-1β produced Mean ± S.E.: LPS 10 ng/ml, 4 hr
Description: Neutrophils were separated from whole blood by Histopaque gradient method (Histopaque-No. 1077). Cell count was adjusted to approximately 10^5/[…]. Lipopolysaccharide, at the concentration of 10 ng/ml was used as stimulus in in-vitro studies. […] Extracellular IL-1β was estimated through ELISA (Table 2) [Weir, R. E., Morgan, A. R., Britton, W. J., Butlin, C. R., Dockrell, H. M., 1994. Development of a whole blood assay to measure T cell responses to leprosy: a new tool for immuno-epidemiological fields studies of leprosy immunity. J. Immunol. Methods. 176, 93; Hussain, R., Kaleem, A., Shahid, F., Dojki, M., Jamil, B., Mehmood, H., Dawood, G., Dockrell, H., 2002. Cytokine profiles using whole blood assays can discriminate between tuberculosis patients and healthy endemic controls in a BCG-vaccinated population. J. Immunol. Methods. 264, 95-108]

leucocyte migration = assay: In vivo leucocyte migration (carrageenan induced pleurisy); parameters: species or system mice; conditions: for EXUDATE VOLUME Mean ± S.E.: 1 h before and 6 h after carrageenan, pleural exudate at 24 h
Description: Mice were injected with 0.2 ml of carrageenan (1% w/v) solution in sterilised normal saline into the pleural cavity by the modified method of Meacock and Kitchen, 1979 [Meacock S C R, Kitchen E A, (1979). Effect of non-steroidal antiinflammatory drug benoxaprofen on leukocyte migration. Journal of Pharmacy & Pharmacology; 31: 366-370]. The test drug was administered orally 1 h before and 6 h after the injection. After 24 h of carrageenan injection the pleural exudate was collected, volume measured and the total leucocyte count of the pleural fluid was determined (Table 3). Flowcytometry as a tool for evaluation of neutrophils is particularly useful because of their larger size than monocytes and lymphocytes when analysed on the forward scatter [FSc]. The percentage of these can be analysed by selectively ‘gating’ the neutrophils without physical separation of the cells (FIG. 4).

vascular permeability = assay: Acetic acid-induced vascular permeability; type: in vivo, mice; conditions: for DYE CONCENTRATION: Evans blue, acetic acid i.p.
Description: Acetic acid-induced increased vascular permeability in mouse model is a capillary permeability assay. Reduction in the increased peritoneal vascular permeability indicates the suppression of the vascular response in the process of acute inflammation.
Mice were injected with […] of Evans blue dye (0.25% w/v in normal saline) intravenously after 30 min of oral administration of the drug. Fifteen minutes later, the mice were injected intraperitoneally (1 ml/100 g of body weight) with freshly prepared 0.6% of acetic acid (v/v) in normal saline. After 30 min of acetic acid injection, the peritoneal cavities were washed with 5 ml of heparinised sterile normal saline and centrifuged (3000×g) for 10 min Absorbance of the supernatant was measured at 610 nm using a spectrophotometer (Table 3) [Whittle B. A. The use of changes in capillary permeability in mice to distinguish between narcotic and non-narcotic analgesics. Brit J Pharmacol 1964; 2: 246-253].

skin allograft rejection = assay: Skin allograft rejection time; type: in vivo, mice
Description: The modified method of Billingham and Medawar (1951) [[…]] was followed to study the skin allograft rejection time in mice. Graded doses of test material AD-B-63B were administered to the animals for 7 days and graft rejection time (GRT) was recorded by daily observation of epithelial skin layer survival. […] The basic mechanism involved in increase in graft rejection time is the suppression of T lymphocytes. After transplantation, MHC peptide complexes of the foreign organ are recognized by CD4+ and CD8+ T cells of the recipient as non-self antigens. These T cells differentiate into effector T cells and stimulate an immune response. After T cells differentiate and migrate to the site, macrophages and other inflammatory agents are mediated to the site. Cytotoxic T cells (CD8+) lyse the endothelial cells on the graft, CD4+ Th1 activate macrophages and CD4+ Th2 aid in antibody production.

[2] = system: humoral antibody response; assay: SRBC induced haemagglutination antibody titre (humoral immune response); type: in vivo, mice; conditions: for ANTIBODY TITRE MEAN ± S.E: blood on day 7
Description: 200 μl of 5×10^9 SRBC/ml was used to immunize the animals on day 0. Animals were treated with graded doses of AD-B-63B i.e., 1, 2.5, 5 and 10mg/kg p.o. for next six consecutive days. Blood samples were collected on day 7 for antibody titre assay. Haemagglutination antibody titre was determined following the microtitration technique described by Nelson and Midenhall, 1967. The value of highest serum dilution causing visible Haemagglutination was taken as titre. BSA saline alone served as control (Table 7).

IL-4 = assay: Intracellular IL-4 expression in SRBC immunised mice; type: in vivo, Swiss albino mice; conditions: graded doses; significantly inhibited at 2.5, 5 and 10 mg/kg
Description: Estimation of intracellular cytokines: The animals were immunized as mentioned above. After 6 days of drug administration, the animals were challenged on day 7. After 48 h of challenge, the blood was collected in the tubes containing EDTA (anti-coagulant) from retro-orbital plexes of animals to determine the effect of test material on the expression of intracellular IL-2 and IFN-γ (Th1) and IL-4 (Th2) cytokines. In this study, PE labeled IL-2 monoclonal antibody was used in one set and PE labeled IFN-γ and FITC labelled IL-4 monoclonal antibody was used in the other set of experimentation (FIG. 7, 8, 9).

[3] = graded oral doses, highly significant effect at 10 mg/kg oral dose

SMILES: CC(=O)OC(C)(C)/C=C/C(=O)[C@](C)(O)[C@H]1[C@H](O)C[C@@]2(C)[C@@H]3CC=C4[C@@H](C=C(O[C@@H]5O[C@H](CO)[C@@H](O)[C@H](O)[C@H]5O)C(=O)C4(C)C)[C@]3(C)C(=O)C[C@]12C [AD-B-63B, 2-O-β-D-glucopyranosyl cucurbitacin E]
- % activity IL-1β expression against LPS control (decrease) ([1]; 0.5 μg/ml): 10.25↓ %
- Concentration of IL-1β produced Mean ± S.E. ([1]; 0.5 μg/ml): 120.91 ± 2.61 pg/mL
- % activity IL-1β expression against LPS control (decrease) ([1]; 1 μg/ml): 18.66↓ %
- Concentration of IL-1β produced Mean ± S.E. ([1]; 1 μg/ml): 109.58 ± 3.21 pg/mL
- % activity IL-1β expression against LPS control (decrease) ([1]; 5.0 μg/ml): 30.90% and 30.90↓ %
- Concentration of IL-1β produced Mean ± S.E. ([1]; 5.0 μg/ml): 93.08 ± 2.61 pg/mL
- % activity IL-1β expression against LPS control (decrease) ([1]; 10.0 μg/ml): 34.96% and 34.96↓ %
- Concentration of IL-1β produced Mean ± S.E. ([1]; 10.0 μg/ml): 87.61 ± 1.99 pg/mL
- Concentration of IL-1β produced Mean ± S.E. ([1]; […]): 106.66 ± 2.44 pg/mL
- % inhibition of exudate volume (leucocyte migration; 1 mg/kg p.o.): (22.72%↓)
- % inhibition of total leucocyte count (leucocyte migration; 1 mg/kg p.o.): (12.12%↓)
- EXUDATE VOLUME Mean ± S.E. (leucocyte migration; 1 mg/kg p.o.): 0.85 ± 0.10 mL
- % inhibition of exudate volume (leucocyte migration; 5 mg/kg p.o.): (38.18%↓)
- % inhibition of total leucocyte count (leucocyte migration; 5 mg/kg p.o.): (23.52%↓)
- EXUDATE VOLUME Mean ± S.E. (leucocyte migration; 5 mg/kg p.o.): 0.68 ± 0.18 mL
- % inhibition of exudate volume (leucocyte migration; 10 mg/kg p.o.): (44.54%↓)
- % inhibition of total leucocyte count (leucocyte migration; 10 mg/kg p.o.): (24.39%↓)
- EXUDATE VOLUME Mean ± S.E. (leucocyte migration; 10 mg/kg p.o.): 0.61 ± 0.10 mL
- exudates volume against control (leucocyte migration; [3]): dose dependent inhibition
- total leucocytes count against control (leucocyte migration; [3]): dose dependent inhibition
- percent reduction of dye concentration (vascular permeability; 1 mg/kg p.o.): (10.71%↓)
- DYE CONCENTRATION (vascular permeability; 1 mg/kg p.o.): 0.50 ± 0.02 μg/25 g mouse
- percent reduction of dye concentration (vascular permeability; 5 mg/kg p.o.): 32.14%
- DYE CONCENTRATION (vascular permeability; 5 mg/kg p.o.): 0.38 ± 0.02 μg/25 g mouse
- percent reduction of dye concentration (vascular permeability; 5 mg/kg p.o., listed as AD-B-63-B): (32.14%↓)
- percent reduction of dye concentration (vascular permeability; 10 mg/kg p.o.): 35.71%
- DYE CONCENTRATION (vascular permeability; 10 mg/kg p.o.): 0.36 ± 0.02 μg/25 g mouse
- percent reduction of dye concentration (vascular permeability; 10 mg/kg p.o., listed as AD-B-63-B): (35.71%↓)
- GRAFT REJECTION (Percent), delayed (skin allograft rejection; 1 mg/kg p.o.): 16.30% and 16.30↓ %
- REJECTION TIME Mean ± S.E. (skin allograft rejection; 1 mg/kg p.o. for 7 days): 15.12 ± 0.11 days
- GRAFT REJECTION (Percent), delayed (skin allograft rejection; 5 mg/kg p.o.): 29.23% and 29.23↓ %
- REJECTION TIME Mean ± S.E. (skin allograft rejection; 5 mg/kg p.o. for 7 days): 16.80 ± 0.22 days
- GRAFT REJECTION (Percent), delayed (skin allograft rejection; 10 mg/kg p.o.): 31.84% and 31.84↓ %
- REJECTION TIME Mean ± S.E. (skin allograft rejection; 10 mg/kg p.o. for 7 days): 17.14 ± 0.23 days
- % ACTIVITY (decrease in antibody titre) ([2]; 1 mg/kg p.o.): 13.47↓ %
- ANTIBODY TITRE MEAN ± S.E ([2]; 1 mg/kg p.o. for six days): 5.33 ± 0.45
- % ACTIVITY (decrease in antibody titre) ([2]; 5 mg/kg p.o.): 33.11↓ %
- ANTIBODY TITRE MEAN ± S.E ([2]; 5 mg/kg p.o. for six days): 4.12 ± 0.33
- % ACTIVITY (decrease in antibody titre) ([2]; 10 mg/kg p.o.): 35.06↓ %
- ANTIBODY TITRE MEAN ± S.E ([2]; 10 mg/kg p.o. for six days): 4.00 ± 0.31
- antibody synthesis (haemagglutination antibody titre) ([2]; significant decrease at 2.5, 5 and 10 mg/kg p.o.): inhibition of antibody synthesis
- expression of intracellular IL-4 (IL-4): decrease
